According to ChEMBL document CHEMBL3885861, “Open TG-GATES”:

Species: Rattus norvegicus
Assay: Open TG-GATES - Regimen: Daily Repeat
Type: toxicity, organism-based, Sprague-Dawley
Design: regimen Daily Repeat, gender Male, age 6 weeks
Conditions: in vivo, po, 100 mg/kg, route gavage, dose level Middle; for APTT / Bas / Eos / Fbg / Hb / Ht / Lym / MCH / MCHC / MCV / Mono / Neu / PT / Plat / RBC / Ret / WBC: tissue Blood; for KIDNEY_L / KIDNEY_R / KIDNEY_TOTAL: tissue Kidney; for LIVER: tissue Liver; for A/G / ALP / ALT / AST / BUN / CRE / Ca / Cl / DBIL / GLC / IP / K / LDH / Na / PL / RALB / TBIL / TC / TG / TP / gamma-GTP: tissue Plasma

CCc1oc2ccccc2c1C(=O)c1cc(I)c(O)c(I)c1 [BENZIODARONE]
TERMINAL_BW (72 h, time 3 day): 247.4 g
APTT (72 h, time 3 day): 17.8 s
Bas (72 h, time 3 day): 0%
Eos (72 h, time 3 day): 0.8%
Fbg (72 h, time 3 day): 228.6 mg/dL
Hb (72 h, time 3 day): 13.9 g/dL
Ht (72 h, time 3 day): 41.6%
Lym (72 h, time 3 day): 80.4%
MCH (72 h, time 3 day): 21.3 pg
MCHC (72 h, time 3 day): 33.3%
MCV (72 h, time 3 day): 63.9 fL
Mono (72 h, time 3 day): 5.8%
Neu (72 h, time 3 day): 12.4%
PT (72 h, time 3 day): 11.4 s
Plat (72 h, time 3 day): 123.9 x10_4/uL
RBC (72 h, time 3 day): 651.4 x10_4/ul
Ret (72 h, time 3 day): 6.4%
WBC (72 h, time 3 day): 123 x10_2/uL
KIDNEY_L (72 h, time 3 day): 1.1 g
KIDNEY_R (72 h, time 3 day): 1.1 g
KIDNEY_TOTAL (72 h, time 3 day): 2.3 g
LIVER (72 h, time 3 day): 14.4 g
A/G (72 h, time 3 day): 1.9
ALP (72 h, time 3 day): 1104 IU/L
ALT (72 h, time 3 day): 38.2 IU/L
AST (72 h, time 3 day): 61 IU/L
BUN (72 h, time 3 day): 17.6 mg/dL
CRE (72 h, time 3 day): 0.5 mg/dL
Ca (72 h, time 3 day): 10.8 mg/dL
Cl (72 h, time 3 day): 103.4 meq/L
DBIL (72 h, time 3 day): 0.038 mg/dL
GLC (72 h, time 3 day): 196 mg/dL
IP (72 h, time 3 day): 7.3 mg/dL
K (72 h, time 3 day): 4.4 meq/L
LDH (72 h, time 3 day): 112.6 IU/L
Na (72 h, time 3 day): 140.6 meq/L
PL (72 h, time 3 day): 148.4 mg/dL
RALB (72 h, time 3 day): 3.8 g/dL
TBIL (72 h, time 3 day): 0.3 mg/dL
TC (72 h, time 3 day): 79 mg/dL
TG (72 h, time 3 day): 66 mg/dL
TP (72 h, time 3 day): 5.9 g/dL
gamma-GTP (72 h, time 3 day): 2 IU/L
TERMINAL_BW ([…], time 7 day): 273.1 g
TERMINAL_BW ([…], time 14 day): 322 g
TERMINAL_BW ([…], time 28 day): 412 g
APTT ([…], time 7 day): 17.9 s
Bas ([…], time 7 day): 0%
Eos ([…], time 7 day): 1.2%
Fbg ([…], time 7 day): 241 mg/dL
Hb ([…], time 7 day): 14.1 g/dL
Ht ([…], time 7 day): 41.6%
Lym ([…], time 7 day): 78.6%
MCH ([…], time 7 day): 21.1 pg
MCHC ([…], time 7 day): 33.9%
MCV ([…], time 7 day): 62.5 fL
Mono ([…], time 7 day): 7.2%
Neu ([…], time 7 day): 13%
PT ([…], time 7 day): 11.7 s
Plat ([…], time 7 day): 139.6 x10_4/uL
RBC ([…], time 7 day): 666.6 x10_4/ul
Ret ([…], time 7 day): 3.8%
WBC ([…], time 7 day): 95.7 x10_2/uL
APTT ([…], time 14 day): 18.4 s
Bas ([…], time 14 day): 0%
Eos ([…], time 14 day): 0.8%
Fbg ([…], time 14 day): 229.4 mg/dL
Hb ([…], time 14 day): 14.3 g/dL
Ht ([…], time 14 day): 42.5%
Lym ([…], time 14 day): 85%
MCH ([…], time 14 day): 20.4 pg
MCHC ([…], time 14 day): 33.6%
MCV ([…], time 14 day): 60.7 fL
Mono ([…], time 14 day): 5.2%
Neu ([…], time 14 day): 9.2%
PT ([…], time 14 day): 11.8 s
Plat ([…], time 14 day): 122.8 x10_4/uL
RBC ([…], time 14 day): 700.6 x10_4/ul
Ret ([…], time 14 day): 2.5%
WBC ([…], time 14 day): 113.1 x10_2/uL
APTT ([…], time 28 day): 18.9 s
Bas ([…], time 28 day): 0%
Eos ([…], time 28 day): 1.4%
Fbg ([…], time 28 day): 225 mg/dL
Hb ([…], time 28 day): 15.2 g/dL
Ht ([…], time 28 day): 45.2%
Lym ([…], time 28 day): 81.8%
MCH ([…], time 28 day): 19.5 pg
MCHC ([…], time 28 day): 33.7%
MCV ([…], time 28 day): 58 fL
Mono ([…], time 28 day): 6%
Neu ([…], time 28 day): 11.2%
PT ([…], time 28 day): 11.8 s
Plat ([…], time 28 day): 114.5 x10_4/uL
RBC ([…], time 28 day): 778.6 x10_4/ul
Ret ([…], time 28 day): 3.4%
WBC ([…], time 28 day): 123.7 x10_2/uL
KIDNEY_L ([…], time 7 day): 1.2 g
KIDNEY_R ([…], time 7 day): 1.2 g
KIDNEY_TOTAL ([…], time 7 day): 2.4 g
KIDNEY_L ([…], time 14 day): 1.2 g
KIDNEY_R ([…], time 14 day): 1.3 g
KIDNEY_TOTAL ([…], time 14 day): 2.5 g
KIDNEY_L ([…], time 28 day): 1.4 g
KIDNEY_R ([…], time 28 day): 1.5 g
KIDNEY_TOTAL ([…], time 28 day): 2.9 g
LIVER ([…], time 7 day): 15.6 g
LIVER ([…], time 14 day): 16.9 g
LIVER ([…], time 28 day): 21.8 g
A/G ([…], time 7 day): 1.7
ALP ([…], time 7 day): 1041.8 IU/L
ALT ([…], time 7 day): 35 IU/L
AST ([…], time 7 day): 65.2 IU/L
BUN ([…], time 7 day): 20.6 mg/dL
CRE ([…], time 7 day): 0.6 mg/dL
Ca ([…], time 7 day): 11 mg/dL
Cl ([…], time 7 day): 103 meq/L
DBIL ([…], time 7 day): 0.03 mg/dL
GLC ([…], time 7 day): 184 mg/dL
IP ([…], time 7 day): 7.8 mg/dL
K ([…], time 7 day): 4.5 meq/L
LDH ([…], time 7 day): 119.8 IU/L
Na ([…], time 7 day): 140.6 meq/L
PL ([…], time 7 day): 153.4 mg/dL
RALB ([…], time 7 day): 3.8 g/dL
TBIL ([…], time 7 day): 0.3 mg/dL
TC ([…], time 7 day): 78.8 mg/dL
TG ([…], time 7 day): 87.2 mg/dL
TP ([…], time 7 day): 6.1 g/dL
gamma-GTP ([…], time 7 day): 1.6 IU/L
A/G ([…], time 14 day): 2
ALP ([…], time 14 day): 712.4 IU/L
ALT ([…], time 14 day): 34.2 IU/L
AST ([…], time 14 day): 61.6 IU/L
BUN ([…], time 14 day): 20.8 mg/dL
CRE ([…], time 14 day): 0.6 mg/dL
Ca ([…], time 14 day): 10.6 mg/dL
Cl ([…], time 14 day): 105.2 meq/L
DBIL ([…], time 14 day): 0.04 mg/dL
GLC ([…], time 14 day): 199 mg/dL
IP ([…], time 14 day): 6.9 mg/dL
K ([…], time 14 day): 4.4 meq/L
LDH ([…], time 14 day): 105 IU/L
Na ([…], time 14 day): 141 meq/L
PL ([…], time 14 day): 139.6 mg/dL
RALB ([…], time 14 day): 4 g/dL
TBIL ([…], time 14 day): 0.2 mg/dL
TC ([…], time 14 day): 73.8 mg/dL
TG ([…], time 14 day): 67.6 mg/dL
TP ([…], time 14 day): 6 g/dL
gamma-GTP ([…], time 14 day): 1.2 IU/L
A/G ([…], time 28 day): 1.7
ALP ([…], time 28 day): 685.6 IU/L
ALT ([…], time 28 day): 37 IU/L
AST ([…], time 28 day): 59.2 IU/L
BUN ([…], time 28 day): 22 mg/dL
CRE ([…], time 28 day): 0.7 mg/dL
Ca ([…], time 28 day): 10.7 mg/dL
Cl ([…], time 28 day): 103.6 meq/L
DBIL ([…], time 28 day): 0.012 mg/dL
GLC ([…], time 28 day): 195.4 mg/dL
IP ([…], time 28 day): 6.4 mg/dL
K ([…], time 28 day): 4.4 meq/L
LDH ([…], time 28 day): 96.6 IU/L
Na ([…], time 28 day): 140.6 meq/L
PL ([…], time 28 day): 159.6 mg/dL
RALB ([…], time 28 day): 4.1 g/dL
TBIL ([…], time 28 day): 0.3 mg/dL
TC ([…], time 28 day): 86.4 mg/dL
TG ([…], time 28 day): 78.6 mg/dL
TP ([…], time 28 day): 6.5 g/dL
gamma-GTP ([…], time 28 day): 1.2 IU/L
